Test results from patent US6087377A (priority 1999, dated 2000).
Entries after “also recorded” stand apart in the source; their conditions may differ. Structures can show the parent of a compound that is named as a salt. Where two headings read alike, the source gives them in different places.

Tests used:
beta-glucuronidase = settings: cited from earlier work
p53 [1] = test: Western immunoblot: p53 level in HT-29 cells; format: cell-based, human; settings: HT-29, mutant (inactive) p53, Western immunoblot
p21 [2] = test: p21 level in WI-38 fibroblasts; format: cell-based, human; settings: WI-38, following p53 and PCNA increase
HT-29 cells [3] = settings: HT-29 human adenocarcinoma cells; Bacon et al. 1996 abstract; cited from earlier work
HT-29 cells [4] = test: Growth inhibition of human colon adenocarcinoma HT-29 cells; format: cell-based
[5] = test system: WI-38 normal human diploid lung fibroblasts; test: Flow cytometry cell cycle arrest, apoptosis and recovery in WI-38 fibroblasts; format: cell-based
p21 [6] = test: p21 detection in HT-29 cells; format: cell-based, human
p53 [7] = test: p53 level in WI-38 fibroblasts; format: cell-based, human; settings: WI-38, IC90 of SN-38 (40 nM)
[8] = test system: WI-38 normal human diploid lung fibroblasts; test: Growth inhibition of WI-38 normal human diploid lung fibroblasts; format: cell-based; settings: WI-38 fibroblasts
PCNA [9] = test: PCNA level in HT-29 cells; format: cell-based, human
[10] = test system: WI-38 normal human diploid lung fibroblasts; settings: normal WI-38 human fibroblasts; cited from earlier work
PCNA [11] = test: PCNA level in WI-38 fibroblasts; format: cell-based, human; settings: WI-38, IC90 of SN-38 (40 nM)
HT-29 cells [12] = test: Flow cytometric cell cycle arrest and apoptosis in HT-29 cells; format: cell-based, human
cells = settings: droloxifene, Hasmann et al. 1994; cited from earlier work
[13] = test system: proliferating cell nuclear antigen (PCNA); settings: hamster, in vivo
[14] = test system: proliferating cell nuclear antigen (PCNA); test: Western immunoblot and immunohistochemistry for PCNA in irinotecan-treated hamster intestinal epithelium; settings: Western immunoblot
cancer patients = settings: cited from earlier work
intestinal epithelium [15] = test: Irinotecan toxicity in the Syrian hamster: intestinal epithelium, diarrhea, weight loss
intestinal epithelium [16] = settings: hamster, in vivo
WI-38 cells = test: Effect of tamoxifen on replication of SN-38-treated normal WI-38 cells; format: cell-based, human; settings: WI-38 (non-tumor) pretreated with tamoxifen prior to and during SN-38 exposure
hamster colon = test: Tamoxifen pre- and co-treatment of CPT-11-treated hamsters: colon morphology and function; format: in vivo; settings: tamoxifen pre- and co-treatment with CPT-11
hamsters = test: Tamoxifen pre- and co-treatment of CPT-11-treated hamsters: weight loss and survival; format: in vivo, hamster
cyclin D1/cdk4 = settings: thought to be the mechanism; Watts et al. 1995; cited from earlier work
[17] = test system: MCF-7 breast cancer cells; settings: tamoxifen, Otto et al. 1996, cited from earlier work
humans = settings: loperamide, aggressive high-dose co-therapy, 2 hr intervals at onset of diarrhea; cited from earlier work

For `O=C(O)[C@H]1O[C@@H](Oc2cc3oc(-c4ccccc4)cc(=O)c3c(O)c2O)[C@H](O)[C@@H](O)[C@@H]1O` [Baicalin, baicalin], the “inhibition of beta-glucuronidase (presumed anti-diarrheal mechanism)” value (beta-glucuronidase) is given as “has similar activity”.
For `CCc1c2c(nc3ccc(O)cc13)-c1cc3c(c(=O)n1C2)COC(=O)[C@]3(O)CC` [SN-38], the “levels of p53” value (p53 [1]) is listed as “upregulated”, the p21 (p21 [2]) is listed as “followed by increases in p21” and the “cell cycle arrest and apoptosis” value (HT-29 cells [3]) is listed as “arrest in G2 /M followed by apoptosis”. The IC90 (HT-29 cells [4]) was 0.01 µM, the inhibition at 0.01 µM (HT-29 cells [4]; SN-38 10 nM) was greater than 90% and the apoptosis ([5]; WI-38, IC90 of SN-38 (40 nM)) was “did not undergo apoptosis”. The “cell cycle arrest (flow cytometry)” value ([5]; WI-38, IC90 of SN-38 (40 nM)) was “arrested in the S phase of the cell cycle”, the “re-entry into the cell cycle” value ([5]; WI-38, when drug was removed) was “slowly re-entered the cell cycle when drug was removed” and the p21 (p21 [6]) was “p21 is not upregulated; we have been unable to detect p21”. The “levels of p53 (wild type)” value (p53 [7]) was “increased”, the IC90 [8] was 0.04 µM and the PCNA levels (PCNA [9]) was “increased”. For the same molecule, the cell cycle arrest [10] was “arrested in S/G2”, the PCNA levels (PCNA [11]) was “increased along with PCNA” and the “apoptosis / recovery from arrest” value (HT-29 cells [12]; HT-29, after arrest) was “cells did not recover but instead underwent programmed cell death (apoptosis)”. The “cell cycle arrest (flow cytometry)” value (HT-29 cells [12]; HT-29, growth-arrested cells) was “replication was blocked in the G2 phase of the cell cycle”.
In the case of `CC/C(=C(/c1ccc(OCCN(C)C)cc1)c1cccc(O)c1)c1ccccc1` [droloxifene], the cell cycle block (cells) is given as “block cells in the G1 phase of the cell cycle in a manner similar to tamoxifen”.
For `CCc1c2c(nc3ccc(OC(=O)N4CCC(N5CCCCC5)CC4)cc13)-c1cc3c(c(=O)n1C2)COC(=O)[C@]3(O)CC` [irinotecan, irinotecan hydrochloride], the “PCNA elevation (Western immunoblot)” value [13] was “time-dependent elevation in proliferating cell nuclear antigen (PCNA)”, the PCNA immunohistochemistry [13] was “increase in the number of labelled epithelial cells and labelling intensity in treated animals, with labelled cells positionally located farther towards the villus tip compared to controls” and the “time of detection of PCNA elevation” value [14] was 1 days. For the same molecule, the major dose-limiting toxicity (cancer patients; cancer patients) was “severe delayed chronic grade 3-4 diarrhea”, the “intestinal toxicity (diarrhea)” value (cancer patients; humans, CAMPTOSAR Injection) was “potentially life-threatening intestinal toxicity (diarrhea)” and the antitumor activity (cancer patients; variety of tumor types) was “activity against a variety of tumor types, and in particular refractory colorectal tumors”. For the same molecule, the “toxicity to the intestinal epithelium” value (intestinal epithelium [15]; coincident with onset of delayed diarrhea) was “considerable toxicity to the intestinal epithelium”, the “crypts / epithelial cells” value (intestinal epithelium [15]; histology) was “apparent reduction of crypts and/or a loss of epithelial cells” and the colon epithelium histology (intestinal epithelium [16]) was “thinned and vacuolated”. For the same molecule, the “crypt cell replication (bromodeoxyuridine labelling)” value (intestinal epithelium [16]) was “reduction in crypt cell replication”, the “diarrhea and weight loss” value (intestinal epithelium [16]) was “coincident with diarrhea and weight loss” and the “structural integrity of the mucosal epithelium” value (intestinal epithelium [16]) was “time-dependent loss of structural integrity of the mucosal epithelium in the jejunum and ileum; villi appeared corrugated and epithelial cells lost their typical columnar morphology”. For the same molecule, the “water and electrolyte loss” value (intestinal epithelium [16]) was “increased water and electrolyte loss”.
With `CC/C(=C(\c1ccccc1)c1ccc(OCCN(C)C)cc1)c1ccccc1` [tamoxifen] the “recovery of replication after SN-38” value (WI-38 cells) was “regained replication kinetics to a greater extent; also recorded: enhances the recovery of a non-tumor cell line from SN-38-induced inhibition”, the “morphology and function of the colon” value (hamster colon) was “improvement in morphology and function of the hamster colon; also recorded: reduces the colonic pathology and physiological effects” and the “weight loss associated with CPT-11 administration” value (hamsters; tamoxifen pre- and co-treatment) was “reduced; also recorded: reduces weight loss attributable to diarrhea”. The survival (hamsters; tamoxifen pre- and co-treatment with CPT-11) was “survival increased”, the “repression of G1-specific protein kinase activity” value (cyclin D1/cdk4) was “repression of G1 -specific protein kinase activity” and the cell cycle block [17] was “blocks cell cycle progression in G0 /G1”. For the same molecule, the cell cycle block ([17]; listed as Tamoxifen) was “block in the G0 /G1 phase of the cell cycle”.
For `CN(C)C(=O)C(CCN1CCC(O)(c2ccc(Cl)cc2)CC1)(c1ccccc1)c1ccccc1` [loperamide], the control of diarrhea (humans) is listed as “successful in most cases”.
